Assay results as given in patent US20230293591A1, “Therapeutic Substances, their Preparation and Diagnostic Procedure” (KING'S COLLEGE LONDON, priority 2017, published 2023).
Where a SMILES comes first, the peptide text is derived from it. The star is where a group is joined. Cbz = O=C(OCc1ccccc1)*; CH2F = FC*

Legend:
PGE2 = PGE2 ELISA in supernatant of MSC co-cultured with IBD patients' PBMC; format: cell-based, human; conditions: MSC (5×10^4) and patients PBMC (1×10^6), 24 hours, inhibitor 50 μM
Description: In particular MSC (5×10^4) and patients PBMC (1×10^6) were co-cultured for 24 hours, either with or without addition of a pan-caspase inhibibtor, Z-VAD-FMK (50 μM).
Supernatant was collected and PGE2 levels were measured by ELISA.

caspase 3 = test: Caspase 3 activation in MSC cultured with activated PBMC (FRET-MSC); format: cell-based, human
Description: Luc-MSC were transfected with the pGL3-Control vector containing the SV40 promoter for the expression of Luc+ (Promega, Southampton, UK) or with pECFPDEVDR-Venus (Addgene, Teddington, UK) using electroporation (Gene Pulser Xcell, BioRad, Kidlington, UK). Cells were suspended in a total volume of 250 μl of buffer and electroporated in 0.4 cm gap cuvettes using 10 μg of DNA at 250 volts and […]. When pECFP-DEVDR-Venus was used, the donor fluorophore pECFP and the acceptor Venus-YFP were linked through the flexible linker DEVDR which is recognized and cleaved by the active form of caspase 3. In this system caspase 3 activity can be monitored through the analysis of the Förster Resonance Energy Transfer (FRET) between pECFP and Venus-YFP. […]
The following antibodies specific for murine molecules were used: anti-CD45 (FITC, Clone 30-F11) (eBiosciences Ltd, Hatfield, UK), anti-Vβ8.3 (FITC, Clone 1B3.3), antiCD8 (APC, Clone 53-6.7), antiCD4 (PE, Clone H129.19), anti-CD19 (APC-H7, Clone 1D3), anti-NK1.1 (PerCP-Cy5.5, Clone PK136) (BD Biosciences, Oxford, UK), anti-CD11b (PerCP-Cy5.5, clone M1/70), anti-CD11c (APC-Cy7, clone n418), anti-Ido1 (Alexa Fluo647, clone 2e2) (BioLegend, London, UK). […] All samples were acquired using BD FACS Canto II using the software FACS Diva and analyzed with Flow-jo software. […]

[1] = tested on: GvHD effector cells (CD8+Vβ8.3+); test: Mouse GvHD model: infiltration of GvHD effector cells in spleen and lungs by flow-cytometry; format: in vivo; conditions: GvHD mice, IDO inhibitor 2 mg/ml in drinking water from 6 days prior to MSC injection
Excerpt: Acute GvHD was induced as previously described (T. Toubai et al. Blood, 119, 3844-3853 (2012)). Briefly, after lethal irradiation (11 Gy), recipient C57BL/6 male mice were transplanted with 1×10^6 purified CD8+ cells transgenic for a T-cell receptor specific for the male HY-antigen Uty (Matahari, Mh) from female Mh mice as GvHD effectors (FIG. 9A), 5×10^6 unfractionated bone marrow (BM) and 2×10^6 purified polyclonal CD4+ cells from female syngeneic donors (C57BL/6 wild-type donors). The control group received BM and purified CD4+ cells only. CD4+ and CD8+ T cells were obtained by positive selection using magnetic beads (Miltenyi Biotec Ltd, Bisley, UK). Live MSC (1×10^6) were injected i.v. at day +3, whilst apoMSC (1×10^6) were administered i.v. or i.p. at day +1, +3 and +6 from the transplant. Unless otherwise specified, animals were euthanized for analysis at day +7. The infiltration of GvHD effector cells was assessed by flow-cytometry and the percentage was expressed as proportion of cells in the lymphocyte gate, based on the physical characteristics of the cells.
In this model, the expansion of the T cells effecting GvHD (CD8+Vβ8.3+) can be precisely enumerated.

| SMILES | PGE2 levels in supernatant (PGE2) | caspase activation in MSC induced by activated PBMC in presence of inhibitor (caspase 3) | beneficial effect of MSC on Mh T cell infiltration [1] |
| --- | --- | --- | --- |
| COC(=O)C[C@H](NC(=O)[C@H](C)NC(=O)[C@@H](NC(=O)OCc1ccccc1)C(C)C)C(=O)CF [Z-VAD-FMK] (Cbz-Val-Ala-Asp(OMe)-CH2F) | largely reduce | completely abrogated | – |
| Cn1cc(C[C@@H](N)C(=O)O)c2ccccc21 [1-DMT, 1-methyl-D-tryptophan] | – | – | much reduced |
